Data published in patent publication US11345710B2, “Imidazo[1,2-b]pyrimido[4,5-d]pyridazin-5(6H)-ones and the use thereof” (IMPACT THERAPEUTICS (SHANGHAI), INC, priority 2017, dated 2022).
pIC50: −log10 of the molar value. Where two headings read alike, the source gives them in different places.

How the values were obtained:
[1] = molecular target: Wee1 kinase (h) (Homo sapiens, UniProt P30291); experiment: Wee1 kinase (h) detection method, [γ-33P]-ATP filter assay; type: biochemical; conditions: for Inh. (%) of Wee1 kinase: 10 μM ATP, 40 minutes at room temperature
Sequence of Wee1 kinase (h) (P30291 whole entry): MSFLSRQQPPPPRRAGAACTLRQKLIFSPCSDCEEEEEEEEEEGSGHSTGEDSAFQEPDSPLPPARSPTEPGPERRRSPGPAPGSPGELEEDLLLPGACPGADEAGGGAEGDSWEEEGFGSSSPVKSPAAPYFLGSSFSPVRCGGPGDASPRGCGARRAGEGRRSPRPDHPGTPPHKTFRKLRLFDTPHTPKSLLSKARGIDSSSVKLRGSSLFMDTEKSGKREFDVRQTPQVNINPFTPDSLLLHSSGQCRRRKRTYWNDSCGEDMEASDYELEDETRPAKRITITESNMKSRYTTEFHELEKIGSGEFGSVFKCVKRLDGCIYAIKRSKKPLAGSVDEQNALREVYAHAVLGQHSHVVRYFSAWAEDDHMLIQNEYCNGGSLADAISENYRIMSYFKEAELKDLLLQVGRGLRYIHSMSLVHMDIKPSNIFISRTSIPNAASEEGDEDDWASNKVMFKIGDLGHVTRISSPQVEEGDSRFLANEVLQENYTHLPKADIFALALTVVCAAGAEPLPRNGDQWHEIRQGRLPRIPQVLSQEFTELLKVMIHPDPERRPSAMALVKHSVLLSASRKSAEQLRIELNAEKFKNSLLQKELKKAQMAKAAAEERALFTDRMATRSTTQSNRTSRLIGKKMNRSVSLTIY
Summary of the method: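 Radiometric filter-binding assay with human Wee1 in 20 mM Tris/HCl pH 8.5, 0.2 mM EDTA, 500 μM peptide substrate, 10 mM Mg acetate, 10 μM [γ-33P]-ATP; compounds at final 1, 0.1 or 0.01 μM. Reaction 40 min at room temperature, stopped with 0.5% phosphoric acid, spotted on P30 filtermat, scintillation counted, duplicates.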

[2] = test system: LoVo cells; experiment: MTT based cell viability assay on LoVo cells; conditions: for pIC50: Homo sapiens, 72 h, read-out: IC50, growth inhibition on LoVo cells
[3] = test system: NCI-H1299 cells; experiment: MTT based cell viability assay on NCI-H1299 cells; conditions: for pIC50: Homo sapiens, read-out: IC50, growth inhibition on NCI-H1299 cells
Summary of the method: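 NCI-H1299 cells (1000/well) were plated overnight, then given a seven-point serial compound dilution plus DMSO control for 3 d at 37 °C, 5% CO2. Viability was read by MTT (0.5 mg/mL, 4 h, DMSO-solubilised) at 552/630/690 nm. IC50 came from a sigmoidal fit of survival versus concentration.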

[4] = 72 h, NCI-H1299 cells, 3 d, MTT

Compound | Inh. (%) of Wee1 kinase ([1]; C 0.01 μm) | pIC50 ([2]; LoVo) | pIC50 ([3]; NCI-H1299, 72 h) | Inh. (%) of Wee1 kinase ([1]; C 1 μm) | pIC50 ([2]; LoVo cells, 3 d, MTT) | pIC50 [3, 4] | inhibitory effect on the activity of Wee1 kinase (summary in words) [1] | Inh. (%) of Wee1 kinase ([1]; C 0.1 μm) | inhibitory effect on the growth of LoVo cells (summary in words) ([2]; MTT method) | inhibitory effect on the growth of NCI-H1299 cell (summary in words) ([3]; MTT method)
Cc1cc(Nc2ncc3c(=O)n(-c4c(Cl)cccc4Cl)n4ccnc4c3n2)cc2c1CCN(C)C2 [Example 44, 6-(2,6-dichlorophenyl)-2-((2,5-dimethyl-1,2,3,4-tetrahydroisoquinolin-7-yl)amino)imidazo[1,2-b]pyrimido[4,5-d]pyridazin-5(6H)-one] | 4% | 6.43 | 6.78 |  |  |  |  |  |  | 
Cc1cc(Nc2ncc3c(=O)n(-c4c(Cl)cccc4Cl)n4ccnc4c3n2)ccc1N1C[C@@H](C)N(C(C)C)[C@@H](C)C1 [Example 34, 6-(2,6-dichlorophenyl)-2-((3-methyl-4-((3S,5R)-4-isopropyl-3,5-dimethylpiperazin-1-yl)phenyl)amino)imidazo[1,2-b]pyrimido[4,5-d]pyridazin-5(6H)-one] | 21% | 6.63 | 6.66 |  |  |  |  |  |  | 
Cc1cc(Nc2ncc3c(=O)n(-c4c(Cl)cccc4Br)n4ccnc4c3n2)ccc1N1CCN(C)CC1 [Example 46, 6-(2-bromo-6-chlorophenyl)-2-((3-methyl-4-(4-methylpiperazin-1-yl)phenyl)amino)imidazo[1,2-b]pyrimido[4,5-d]pyridazin-5(6H)-one] | 17% |  |  | 92% | 6.62 | 6.57 |  |  |  | 
CN1CCN(c2ccc(Nc3ncc4c(=O)n(-c5c(Cl)cccc5Cl)n5ccnc5c4n3)cc2)CC1 [Example 1, 6-(2,6-dichlorophenyl)-2-((4-(4-methylpiperazin-1-yl)phenyl)amino)imidazo[1,2-b]pyrimido[4,5-d]pyridazin-5(6H)-one] | 11% | 6.28 | 6.04 | 94% |  |  | good inhibitory effect | 75% | inhibitory effect | inhibitory effect
Cc1cc(Nc2ncc3c(=O)n(-c4c(C)cccc4F)n4ccnc4c3n2)ccc1N1CCN(C)CC1 [Example 14, 6-(2-fluoro-6-methylphenyl)-2-((3-methyl-4-(4-methylpiperazin-1-yl)phenyl)amino)imidazo[1,2-b]pyrimido[4,5-d]pyridazin-5(6H)-one] |  |  |  | 93% | 6.06 | 6.23 |  |  |  | 
Cc1cc(Nc2ncc3c(=O)n(-c4c(Cl)cccc4Cl)n4ccnc4c3n2)ccc1N1CCC(N(C)C)CC1 [Example 36, 6-(2,6-dichlorophenyl)-2-((3-methyl-4-(4-(dimethylamino)piperidin-1-yl)phenyl)amino)imidazo[1,2-b]pyrimido[4,5-d]pyridazin-5(6H)-one] | 22% | 6.69 | 6.87 | 98% |  |  |  |  |  | 
Cc1cc(Nc2ncc3c(=O)n(-c4c(F)cccc4F)n4ccnc4c3n2)cc(F)c1N1CCN(C)CC1 [Example 19, 6-(2,6-difluorophenyl)-2-((3-fluoro-5-methyl-4-(4-methylpiperazin-1-yl)phenyl)amino)imidazo[1,2-b]pyrimido[4,5-d]pyridazin-5(6H)-one] |  |  |  | 92% | 6.39 | 6.13 |  |  |  | 
Cc1cc(Nc2ncc3c(=O)n(-c4c(Cl)cccc4Br)n4ccnc4c3n2)cc(F)c1N1CCC(N(C)C)CC1 [Example 50, 6-(2-bromo-6-chlorophenyl)-2-((3-fluoro-5-methyl-4-(4-(dimethylamino)piperidin-1-yl)phenyl)amino)imidazo[1,2-b]pyrimido[4,5-d]pyridazin-5(6H)-one] |  |  |  | 94% | 6.49 | 6.30 |  |  |  | 
Cc1cc(Nc2ncc3c(=O)n(-c4c(F)cccc4Cl)n4ccnc4c3n2)cc(F)c1N1CCN(C)CC1 [Example 22, 6-(2-chloro-6-fluorophenyl)-2-((3-fluoro-5-methyl-4-(4-methylpiperazin-1-yl)phenyl)amino)imidazo[1,2-b]pyrimido[4,5-d]pyridazin-5(6H)-one] | 21% |  |  | 95% | 6.86 | 6.43 |  |  |  | 
